Some test systems named below: Serratia rubidaea X01; Escherichia coli; Staphylococcus aureus; Escherichia coli ML-35p; Candida albicans 820; Pseudomonas aeruginosa 9.
What all share (assay): ≥ marks a high value that may be exact or a test limit, other limits are often not marked, values filed in µg/mL are converted to µM
In assay [1] the test system is Pseudomonas aeruginosa 11053.
The subject of assay [2] is Staphylococcus carnosus KHS.
Assay [3] relates to Bacillus licheniformis X39.
The subject of assay [4] is Staphylococcus aureus ATCC 25923.
Assay [5] concerns Candida albicans ATCC 10231.
The test system of assay [6] is Enterococcus faecalis 981.
In assay [7] the test system is Psychrobacter faecalis X29.
Assay [8] relates to Rhodococcus rhodochrous X15.
Assay [9] has as its system Escherichia coli ATCC 25922.
The test system of assay [10] is Bifidobacterium longum subsp. infantis.
For assay [11], the system named is Micrococcus luteus PTCC 1625.
Assay [12] has as its system Staphylococcus aureus PTCC 1431.
The test system of assay [13] is Escherichia coli HP101BA 7601c.
In assay [14] the test system is Klebsiella pneumoniae PTCC 1388.
The subject of assay [15] is Listeria monocytogenes EGD.
Assay [16] concerns Pseudomonas aeruginosa H1030.
In assay [17] the test system is Enterococcus faecalis W61950.
In assay [18] the test system is Escherichia coli ESBL 63103.
Assay [19] relates to Enterobacter cloacae 218R.
For assay [20], the system named is Escherichia coli ESBL 64771.
Assay [21] has as its system Stenotrophomonas maltophilia ATCC 13637.
For assay [22], the system named is Klebsiella pneumoniae ESBL 61962.
In assay [23] the test system is Staphylococcus aureus C623.
The subject of assay [24] is Pseudomonas aeruginosa H1027.
Assay [25] deals with Klebsiella pneumoniae ESBL 63575.
Assay [26] deals with Enterococcus faecalis ATCC 29212.
In assay [27] the test system is Pseudomonas aeruginosa 198.
The test system of assay [28] is Enterococcus faecium mic80.
For assay [29], the system named is Pseudomonas aeruginosa PAO1 H103.
The test system of assay [30] is Enterococcus faecium t62764.
In assay [31] the test system is Pseudomonas aeruginosa 213.
The test system of assay [32] is Pseudomonas aeruginosa LES400.
Assay [33] relates to Enterococcus faecalis f43559.

In brackets after ≈: the same amount, converted by molar mass. Several values for one entry are separate records, joined by “and”; a condition that tells them apart may be missing. Identical values can stand only once.

A word on the MIC: it is the least concentration at which growth counts as inhibited. Higher therefore signals weaker potency.

As to `CC[C@H](C)[C@@H]1NC(=O)[C@H](CCCCN)NC(=O)[C@@H](NC(=O)[C@H](Cc2ccccc2)NC(=O)[C@H](CC(C)C)NC(=O)[C@@H](NC(=O)[C@@H]2CCCN2C(=O)[C@@H](NC(=O)[C@@H](NC(=O)[C@H](CCCCN)NC(=O)[C@H](CO)NC(=O)[C@H](C)NC(=O)[C@@H](NC(=O)[C@H](CC(N)=O)NC(=O)[C@H](CC(C)C)NC(=O)[C@H](CC(C)C)NC(=O)[C@@H](NC(=O)[C@H](CO)NC(=O)[C@H](CC(C)C)NC(=O)[C@@H](N)Cc2ccccc2)[C@@H](C)O)C(C)C)C(C)C)C(C)C)[C@@H](C)O)CSSC[C@@H](C(=O)O)NC(=O)[C@H](CCCCN)NC(=O)[C@H](CCCCN)NC(=O)[C@H]([C@@H](C)O)NC1=O` [FLSTLLNVASKVVPTLFCKITKKC], the MIC is ≥ 75 µM in [1]; 9 µM (≈ 23.9 µg/mL) in [2]; 9 µM (≈ 23.9 µg/mL) against Serratia rubidaea X01; 9 µM (≈ 23.9 µg/mL) in assay [3]; 9 µM (≈ 23.9 µg/mL) in assay [4]; 150 µM (≈ 398 µg/mL) in assay [5]. For the same molecule, the minimal inhibitory concentration (MIC) came out at 9 µM (≈ 23.9 µg/mL) in [6], 9 µM (≈ 23.9 µg/mL) in assay [7], 2.3 µM (≈ 6.1 µg/mL) in assay [8] and 150 µM (≈ 398 µg/mL) in [9].

As to `CC[C@H](C)[C@H](NC(=O)[C@H](CCC(N)=O)NC(=O)[C@@H](N)Cc1cnc[nH]1)C(=O)N[C@@H](Cc1ccc(O)cc1)C(=O)N1CCC[C@H]1C(=O)N[C@H](C(=O)N[C@H](C(=O)N[C@@H](CCC(N)=O)C(=O)N1CCC[C@H]1C(=O)N[C@@H](CC(C)C)C(=O)O)[C@@H](C)O)C(C)C` [HQIYPVTQPL], the MIC was > 2510 µM against Escherichia coli, ≥ 2510 µM in assay [10] and > 2510 µM against Staphylococcus aureus.

For `CC(C)C[C@H](NC(=O)CNC(=O)[C@H](C)NC(=O)[C@@H](N)CCCN=C(N)N)C(=O)N[C@@H](CCCCN)C(=O)N[C@@H](Cc1ccccc1)C(=O)N1CCC[C@H]1C(=O)N[C@H](C(=O)NCC(=O)N[C@@H](CCCN=C(N)N)C(=O)N[C@H](C(=O)N[C@@H](Cc1cnc[nH]1)C(=O)N[C@@H](CCCN=C(N)N)C(=O)N[C@@H](CC(C)C)C(=O)N[C@@H](CC(C)C)C(=O)N[C@@H](CCCN=C(N)N)C(=O)O)C(C)C)C(C)C` [RAGLKFPVGRVHRLLR], the minimum inhibitory concentration (MIC) in [11] was 6 µM (≈ 11.3 µg/mL); in assay [12], 8.1 µM (≈ 15.2 µg/mL); in assay [13], 9.6 µM (≈ 18 µg/mL); in assay [14], 10.6 µM (≈ 19.9 µg/mL).

As to `CC[C@H](C)[C@@H]1NC(=O)[C@H](CCCN=C(N)N)NC(=O)[C@@H]2CSSC[C@@H]3NC(=O)[C@H](C(C)C)NC(=O)CNC(=O)[C@H](Cc4ccccc4)NC(=O)[C@H](Cc4ccc(O)cc4)NC(=O)[C@H](C(C)C)NC(=O)[C@H](CCC(=O)O)NC(=O)[C@H](CC(C)C)NC(=O)CNC(=O)[C@H](CC(C)C)NC(=O)[C@H](CSSC[C@H](NC(=O)[C@H](CCCN=C(N)N)NC(=O)[C@H](CCCN=C(N)N)NC(=O)[C@H](C)NC(=O)[C@H](CC(C)C)NC(=O)[C@H](CCCN=C(N)N)NC(=O)CNC(=O)[C@H](Cc4cnc[nH]4)NC(=O)[C@H](CC(C)C)NC(=O)[C@H](Cc4ccccc4)NC3=O)C(=O)N[C@H](C(=O)N[C@@H](CCCN=C(N)N)C(=O)O)CSSC[C@H](NC(=O)[C@@H](NC(=O)[C@@H](N)CCCN=C(N)N)[C@@H](C)CC)C(=O)N[C@@H](CCCN=C(N)N)C(=O)N2)NC(=O)[C@H](CCCN=C(N)N)NC(=O)CNC1=O` [RICRCRIGRCLGLEVYFGVCFLHGRLARRCCR], the minimum inhibitory concentration (MIC) in [15] was 2.1 µM and 1.9 µM; in the assay on Escherichia coli ML-35p, 1.7 µM and 2.9 µM; in the assay with Candida albicans 820, 4 µM and 7.5 µM.

`NCCCC[C@H](NC(=O)[C@H](CCCCN)NC(=O)[C@H](Cc1c[nH]c2ccccc12)NC(=O)[C@H](Cc1c[nH]c2ccccc12)NC(=O)[C@H](CCCN=C(N)N)NC(=O)[C@H](CCCCN)NC(=O)[C@@H](N)Cc1c[nH]c2ccccc12)C(=O)N[C@@H](Cc1c[nH]c2ccccc12)C(=O)N[C@@H](CCCN=C(N)N)C(=O)O` [WKRWWKKWR]: the minimum inhibitory concentration (MIC) is 21.2 µM (≈ 31 µg/mL) in assay [16]; 21.2 µM (≈ 31 µg/mL) in the assay on Pseudomonas aeruginosa 9; ≥ 87 µM in assay [17]; 11 µM (≈ 16 µg/mL) in assay [18]; ≥ 43.2 µM in assay [19]; 1.37 µM (≈ 2 µg/mL) in [20]. Moreover, the minimal inhibitory concentration (MIC) in assay [21] was 0.685 µM (≈ 1 µg/mL); in assay [22], ≥ 87 µM; in assay [4] it was 2.74 µM (≈ 4 µg/mL); in assay [23] it was 2.74 µM (≈ 4 µg/mL); in assay [24], 2.74 µM (≈ 4 µg/mL); in [25], 21.2 µM (≈ 31 µg/mL). Further, the MIC in assay [26] was 43.2 µM (≈ 63 µg/mL); in assay [27], 21.2 µM (≈ 31 µg/mL); in [28], 11 µM (≈ 16 µg/mL); in [29] it was 11 µM (≈ 16 µg/mL); in assay [30], 2.74 µM (≈ 4 µg/mL); in assay [31] it was ≥ 43.2 µM. For the same molecule, the minimal inhibitory concentration (MIC) in assay [32] was 11 µM (≈ 16 µg/mL); in assay [33], ≥ 87 µM.

Values taken from DBAASP.
